Data as given in PubChem BioAssay AID1845205 (Molecular Pharmacology Branch, DTP, NCI, 2023).

Tested on: MPNST multicellular tumor spheroids, viability % test/control
Experiment: Anticancer human tumor MPNST cell line growth inhibition;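 also: spheroids exposed to agents for seven days after three days of growth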;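 as to viability, T/C: luminescence signal used as surrogate for viable cell amount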
Settings: for IC50: curve of first compound; for viability, T/C: stronger effect = lower value
Outline: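 Complex spheroids of malignant cells with endothelial cells and mesenchymal stem cells; agents alone or combined, from near clinical Cmax (or 10 microM if unknown) down in half-log steps, 0.25% DMSO final.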

[1] = second compound 1 µM, first compound 0.0316 µM
[2] = second compound 1 µM, first compound 0.1 µM
[3] = second compound 1 µM, first compound 0.316 µM
[4] = second compound 1 µM, first compound 1 µM
[5] = second compound 1 µM, first compound 3.16 µM
[6] = second compound 1 µM, first compound 10 µM
[7] = second compound 3.16 µM, first compound 0.0316 µM
[8] = second compound 3.16 µM, first compound 0.1 µM
[9] = second compound 3.16 µM, first compound 0.316 µM
[10] = second compound 3.16 µM, first compound 1 µM
[11] = second compound 3.16 µM, first compound 3.16 µM
[12] = second compound 3.16 µM, first compound 10 µM
[13] = second compound 10 µM, first compound 0.0316 µM
[14] = second compound 10 µM, first compound 0.1 µM
[15] = second compound 10 µM, first compound 0.316 µM
[16] = second compound 10 µM, first compound 1 µM
[17] = second compound 10 µM, first compound 3.16 µM
[18] = second compound 10 µM, first compound 10 µM
[19] = second compound 31.6 µM, first compound 0.0316 µM
[20] = second compound 31.6 µM, first compound 0.1 µM
[21] = second compound 31.6 µM, first compound 0.316 µM
[22] = second compound 31.6 µM, first compound 1 µM
[23] = second compound 31.6 µM, first compound 3.16 µM
[24] = second compound 31.6 µM, first compound 10 µM
[25] = second compound 100 µM, first compound 0.0316 µM
[26] = second compound 100 µM, first compound 0.1 µM
[27] = second compound 100 µM, first compound 0.316 µM
[28] = second compound 100 µM, first compound 1 µM
[29] = second compound 100 µM, first compound 3.16 µM
[30] = second compound 100 µM, first compound 10 µM

## COc1ccc([C@@H](O)c2cc(-c3ncnc4cc(N5CCOCC5)ccc34)c(F)cc2Cl)nn1 + Cn1nnc2c(C(N)=O)ncn2c1=O
Second compound 1 µM
  IC50: 1650 nM
Second compound 3.16 µM
  IC50: 1510 nM
Second compound 10 µM
  IC50: 1820 nM
Second compound 31.6 µM
  IC50: 2070 nM
Second compound 100 µM
  IC50: 1580 nM
[1]
  viability, T/C: 93.3%
[2]
  viability, T/C: 90.2%
[3]
  viability, T/C: 73.2%
[4]
  viability, T/C: 59%
[5]
  viability, T/C: 39.5%
[6]
  viability, T/C: 23%
[7]
  viability, T/C: 76.4%
[8]
  viability, T/C: 99.1%
[9]
  viability, T/C: 80%
[10]
  viability, T/C: 57.7%
[11]
  viability, T/C: 35.9%
[12]
  viability, T/C: 23.4%
[13]
  viability, T/C: 86.8%
[14]
  viability, T/C: 74.9%
[15]
  viability, T/C: 73%
[16]
  viability, T/C: 65.5%
[17]
  viability, T/C: 36.6%
[18]
  viability, T/C: 24.2%
[19]
  viability, T/C: 81.2%
[20]
  viability, T/C: 72.8%
[21]
  viability, T/C: 75.2%
[22]
  viability, T/C: 66.5%
[23]
  viability, T/C: 40.4%
[24]
  viability, T/C: 26.4%
[25]
  viability, T/C: 76.3%
[26]
  viability, T/C: 90.8%
[27]
  viability, T/C: 68.4%
[28]
  viability, T/C: 57.7%
[29]
  viability, T/C: 39.7%
[30]
  viability, T/C: 25.6%

## Cc1sc2c(c1C)C(c1ccc(Cl)cc1)=NC(CC(=O)Nc1ccc(O)cc1)c1nnc(C)n1-2 (stereo not given) + CC[C@@]1(O)C(=O)OCc2c1cc1n(c2=O)Cc2cc3c(CN(C)C)c(O)ccc3nc2-1
Second compound 0.003 µM
  IC50: 1860 nM
Second compound 0.00949 µM
  IC50: > 3000 nM
Second compound 0.03 µM
  IC50: 2500 nM
Second compound 0.0949 µM
  IC50: 1210 nM
Second compound 0.3 µM
  IC50: 10.6 nM
Second compound 0.003 µM, first compound 0.00949 µM
  viability, T/C: 113%
Second compound 0.003 µM, first compound 0.03 µM
  viability, T/C: 98.3%
Second compound 0.003 µM, first compound 0.0949 µM
  viability, T/C: 85.1%
Second compound 0.003 µM, first compound 0.3 µM
  viability, T/C: 66.9%
Second compound 0.003 µM, first compound 0.949 µM
  viability, T/C: 51.9%
Second compound 0.003 µM, first compound 3 µM
  viability, T/C: 48.4%
Second compound 0.00949 µM, first compound 0.00949 µM
  viability, T/C: 82%
Second compound 0.00949 µM, first compound 0.03 µM
  viability, T/C: 85.7%
Second compound 0.00949 µM, first compound 0.0949 µM
  viability, T/C: 81.8%
Second compound 0.00949 µM, first compound 0.3 µM
  viability, T/C: 62.4%
Second compound 0.00949 µM, first compound 0.949 µM
  viability, T/C: 54.5%
Second compound 0.00949 µM, first compound 3 µM
  viability, T/C: 50.5%
Second compound 0.03 µM, first compound 0.00949 µM
  viability, T/C: 66.8%
Second compound 0.03 µM, first compound 0.03 µM
  viability, T/C: 64.1%
Second compound 0.03 µM, first compound 0.0949 µM
  viability, T/C: 62%
Second compound 0.03 µM, first compound 0.3 µM
  viability, T/C: 58.1%
Second compound 0.03 µM, first compound 0.949 µM
  viability, T/C: 51.9%
Second compound 0.03 µM, first compound 3 µM
  viability, T/C: 49.4%
Second compound 0.0949 µM, first compound 0.00949 µM
  viability, T/C: 58.4%
Second compound 0.0949 µM, first compound 0.03 µM
  viability, T/C: 60.1%
Second compound 0.0949 µM, first compound 0.0949 µM
  viability, T/C: 60.4%
Second compound 0.0949 µM, first compound 0.3 µM
  viability, T/C: 56.3%
Second compound 0.0949 µM, first compound 0.949 µM
  viability, T/C: 48.8%
Second compound 0.0949 µM, first compound 3 µM
  viability, T/C: 45.4%
Second compound 0.3 µM, first compound 0.00949 µM
  viability, T/C: 50.6%
Second compound 0.3 µM, first compound 0.03 µM
  viability, T/C: 47.8%
Second compound 0.3 µM, first compound 0.0949 µM
  viability, T/C: 47.2%
Second compound 0.3 µM, first compound 0.3 µM
  viability, T/C: 44.9%
Second compound 0.3 µM, first compound 0.949 µM
  viability, T/C: 37.9%
Second compound 0.3 µM, first compound 3 µM
  viability, T/C: 33.1%

## Cc1cc(C)c(CNC(=O)c2cc(-c3ccc(CN4CCOCC4)cc3)cc3c2cnn3C2CCCC2)c(=O)[nH]1 + Cn1nnc2c(C(N)=O)ncn2c1=O
Second compound 1 µM
  IC50: > 10000 nM
Second compound 3.16 µM
  IC50: > 10000 nM
Second compound 10 µM
  IC50: > 10000 nM
Second compound 31.6 µM
  IC50: > 10000 nM
Second compound 100 µM
  IC50: > 10000 nM
[1]
  viability, T/C: 95.9%
[2]
  viability, T/C: 82.8%
[3]
  viability, T/C: 101%
[4]
  viability, T/C: 92.7%
[5]
  viability, T/C: 115%
[6]
  viability, T/C: 98.6%
[7]
  viability, T/C: 141%
[8]
  viability, T/C: 96.7%
[9]
  viability, T/C: 116%
[10]
  viability, T/C: 109%
[11]
  viability, T/C: 103%
[12]
  viability, T/C: 104%
[13]
  viability, T/C: 75.3%
[14]
  viability, T/C: 90.9%
[15]
  viability, T/C: 107%
[16]
  viability, T/C: 91%
[17]
  viability, T/C: 109%
[18]
  viability, T/C: 103%
[19]
  viability, T/C: 103%
[20]
  viability, T/C: 85.8%
[21]
  viability, T/C: 111%
[22]
  viability, T/C: 107%
[23]
  viability, T/C: 103%
[24]
  viability, T/C: 99.5%
[25]
  viability, T/C: 99.1%
[26]
  viability, T/C: 97.5%
[27]
  viability, T/C: 96.9%
[28]
  viability, T/C: 109%
[29]
  viability, T/C: 97.9%
[30]
  viability, T/C: 88.4%
